Results: US11278549B2, “Method of treating obesity” (McMaster University, priority 2013, dated 2022)
Counter-ions that a name gives are not always drawn.

How the values were obtained:
5-HT2A = target: T1, 5-HT2A (Mus musculus, UniProt P35363); assay: Fluo-4 Ca2+ signals in brown adipocytes; format: cell-based; conditions: for Ca2+ levels: brown adipocytes stained with Fluo-4, agonist treatment; for 5-HT induced Ca2+ transients: pre-treatment with antagonist
T1 construct: endogenous in cells; host or cells: immortalized murine brown adipocytes (differentiated)
Text: Immortalized BA progenitor cells obtained from 5-HT2A KO (B6; 129-5-HT2Atm1a/Nju from Nanjing Biomedical Research Institute of Nanjing University) mice were differentiated for 9 days to produce mature BAs. Cells were then stained with fluo-4 and treated with different concentrations of 5-HT to obtain a dose response curve. Values from BAs expressing 5-HT2A used for other experiments were plotted as a WT comparison.

UCP1 = assay: Ucp1 promoter activity, Ucp1 mRNA and UCP1 protein in brown adipocytes; format: cell-based, mouse
Experimental: Using RNA-Seq, cultured human brown and beige adipocytes were interrogated for 5-HT receptor mRNA expression. Immortalized murine brown adipocytes (BAs) were treated with or without the selective 5-HT reuptake inhibitor (SSRI), paroxetine (250 nM). Subsequent studies were conducted with and without 5-HT2A agonists (1 pM-10 uM TCB-2, 1 pM-10 uM AL-34662, and 1 pM-10 uM NBOH-2C-CN) and 5-HT2A antagonists (100 fM-100 pM MDL-100907, 100 pM-10 uM xylamidine tosylate, 1 nM ketanserin, 10 nM altanserin, 100 fM-100 pM EMD-281,014, and 100 pM-10 uM sarpogrelate hydrochloride).
BA progenitors were isolated and immortalized from WT and serotonin transporter (SERT; Gene: Slc6a4) KO mice. These cells were then differentiated for 7 days to obtain mature BAs. BAs were then treated with different doses of 5-HT for 4 hours. RNA was isolated and quantified using RT-qPCR with probes specific for Slc6a4, Ucp1 and PPIA.
BA progenitors were isolated from mice expressing a transgene where the luciferase gene is driven by the Ucp1 promoter (i.e. Ucp1-Luc2 mice; a.k.a. ThermoMouse; Jackson Laboratories). Upon 9 days of differentiation, these BAs were treated for 4 hours with different doses of 5-HT. Because in vitro there is not a continuous supply of 5-HT as there is in vivo, cells were treated with paroxetine to inhibit the uptake and consequent degradation of 5-HT, and to observe 5-HT receptor specific effects. These cells were then lysed, incubated with a luciferin assay cocktail, and the light generated quantified on a microplate reader.

T1 sequence (P35363 whole entry): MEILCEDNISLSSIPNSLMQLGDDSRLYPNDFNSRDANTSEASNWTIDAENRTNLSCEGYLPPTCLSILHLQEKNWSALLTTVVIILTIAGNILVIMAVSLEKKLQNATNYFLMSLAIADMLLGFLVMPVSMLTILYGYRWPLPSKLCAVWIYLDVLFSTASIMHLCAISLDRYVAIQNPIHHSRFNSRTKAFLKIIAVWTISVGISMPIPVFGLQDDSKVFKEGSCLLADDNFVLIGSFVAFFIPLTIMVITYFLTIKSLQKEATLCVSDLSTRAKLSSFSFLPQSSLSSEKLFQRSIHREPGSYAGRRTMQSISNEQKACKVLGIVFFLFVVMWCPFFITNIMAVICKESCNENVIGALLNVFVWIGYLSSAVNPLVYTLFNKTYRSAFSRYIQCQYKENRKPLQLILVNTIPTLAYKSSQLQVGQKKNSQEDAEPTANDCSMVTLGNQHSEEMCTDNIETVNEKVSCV

SMILES | Ca2+ levels (5-HT2A) | 5-HT induced Ca2+ transients (5-HT2A) | further results
C[C@H](N)Cn1ncc2ccc(O)cc21 [AL-34662] | increased | – | –
N#Cc1c[nH]c2c(C(=O)N3CCN(CCc4ccc(F)cc4)CC3)cccc12 [EMD-281,014, pruvanserin] | – | attenuated | –
COc1cccc([C@H](O)C2CCN(CCc3ccc(F)cc3)CC2)c1OC [MDL-100907, volinanserin] | – | attenuated | 5-HT induced decrease in UCP1 protein levels (UCP1; antagonist plus 5-HT): dose-dependently attenuated
COc1cc(CCNCc2ccccc2O)c(OC)cc1C#N [NBOH-2C-CN] | increased | – | Ucp1 mRNA (UCP1; brown adipocytes): inhibited; UCP1 protein levels (UCP1; brown adipocytes, chronic treatment for NBOH-2C-CN): decreased
COc1cccc(CCc2ccccc2OCC(CN(C)C)OC(=O)CCC(=O)O)c1 (stereo not shown) [Sarpogrelate hydrochloride] | – | attenuated | –
COc1cc(Br)c(OC)c2c1[C@H](CN)C2 [TCB-2] | increased | – | –
Fc1ccc([C@@H]2CCNC[C@H]2COc2ccc3c(c2)OCO3)cc1 [paroxetine] | – | – | sensitivity of brown adipocytes to inhibition by 5-HT (UCP1; serotonin transporter inhibited with the SSRI): greater sensitivity
